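Exposure lasted 48 hours, with cells grown in 96-well plates and compounds tested at five concentrations. Abbreviation: GI50, concentration required for 50% inhibition of growth.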 Active and inactive are the calls of the source. No stated cut-off is given here; in the data, active = GI50 up to about 1.1 µM and inactive = higher.
What was measured:
Experiment in all cases: inhibition of tumour cell growth, NCI panel, 48 h
[1] = test system: U-251
[2] = test system: DU-145
[3] = test system: HOP-92
[4] = test system: NCI-H522
[5] = test system: SNB-19
[6] = test system: UO-31
[7] = test system: HCC 2998
[8] = test system: MDA-MB-435
[9] = test system: PC-3
[10] = test system: K562
[11] = test system: RPMI-8226
[12] = test system: COLO 205
[13] = test system: OVCAR-4
[14] = test system: BT-549
[15] = test system: OVCAR-5
[16] = test system: NCI/ADR-RES
[17] = test system: SF-268
[18] = test system: NCI-H226
[19] = test system: SK-MEL-28
[20] = test system: SN12C
[21] = test system: MDA-N
[22] = test system: SF-295
[23] = test system: TK-10
[24] = test system: UACC-62
[25] = test system: HL-60
[26] = test system: HCT-15
[27] = test system: HOP-62
[28] = test system: SK-MEL-2
[29] = test system: Malme-3M
[30] = test system: SR
[31] = test system: SK-OV-3
[32] = test system: CCRF-CEM
[33] = test system: MOLT-4
[34] = test system: Hs-578T
[35] = test system: SK-MEL-5
[36] = test system: UACC-257
[37] = test system: SNB-75
[38] = test system: NCI-H23
[39] = test system: MCF7
[40] = test system: LOX IMVI
[41] = test system: SF-539
[42] = test system: KM12
[43] = test system: HT-29
[44] = test system: IGROV-1
[45] = test system: A549
[46] = test system: EKVX
[47] = test system: OVCAR-8
[48] = test system: MDA-MB-231
[49] = test system: HCT-116
[50] = test system: NCI-H460
[51] = test system: OVCAR-3
[52] = test system: RXF 393
[53] = test system: CAKI-1
[54] = test system: 786-0
[55] = test system: SW-620
[56] = test system: T47D
[57] = test system: ACHN
[58] = test system: M14
[59] = test system: A498

COc1cccc(C2CC(C)(O)Oc3cc4c(cc32)OCO4)c1O (stereo unspecified)
GI50 [1]: 24.2 µM (inactive)
GI50 [2]: 22.6 µM (inactive)
GI50 [3]: 22.4 µM (inactive)
GI50 [4]: 20.1 µM (inactive)
GI50 [5]: 31 µM (inactive)
GI50 [6]: 35.6 µM (inactive)
GI50 [7]: 25.6 µM (inactive)
GI50 [8]: 2.78 µM (inactive)
GI50 [9]: 27.2 µM (inactive)
GI50 [10]: 9.68 µM (inactive)
GI50 [11]: 32.5 µM (inactive)
GI50 [12]: 19.5 µM (inactive)
GI50 [13]: 38.8 µM (inactive)
GI50 [14]: 15.3 µM (inactive)
GI50 [15]: 27 µM (inactive)
GI50 [16]: 19.7 µM (inactive)
GI50 [17]: 31 µM (inactive)
GI50 [18]: 17.4 µM (inactive)
GI50 [19]: 35.2 µM (inactive)
GI50 [20]: 28.7 µM (inactive)
GI50 [21]: 2.72 µM (inactive)
GI50 [22]: 19.4 µM (inactive)
GI50 [23]: 39.7 µM (inactive)
GI50 [24]: 15.7 µM (inactive)
GI50 [25]: 31 µM (inactive)
GI50 [26]: 21.7 µM
GI50 [27]: 27.4 µM (inactive)
GI50 [28]: 22.8 µM (inactive)
GI50 [29]: 29.2 µM (inactive)
GI50 [30]: 4.63 µM (inactive)
GI50 [31]: 28.5 µM (inactive)
GI50 [32]: 13.3 µM (inactive)
GI50 [33]: 37.4 µM (inactive)
GI50 [34]: 15.4 µM (inactive)
GI50 [35]: 9.31 µM (inactive)
GI50 [36]: 39.4 µM (inactive)
GI50 [37]: 14.2 µM (inactive)
GI50 [38]: 30.4 µM (inactive)
GI50 [39]: 11.4 µM (inactive)
GI50 [40]: 25.3 µM (inactive)
GI50 [41]: 17.4 µM (inactive)
GI50 [42]: 12.5 µM (inactive)
GI50 [43]: 21.4 µM (inactive)
GI50 [44]: 27.9 µM (inactive)
GI50 [45]: 34.4 µM (inactive)
GI50 [46]: 34.6 µM (inactive)
GI50 [47]: 25.7 µM (inactive)
GI50 [48]: 18 µM (inactive)
GI50 [49]: 10.7 µM (inactive)
GI50 [50]: 32.6 µM (inactive)
GI50 [51]: 15.6 µM (inactive)
GI50 [52]: 26.3 µM (inactive)
GI50 [53]: 39.4 µM (inactive)
GI50 [54]: 24.8 µM (inactive)
GI50 [55]: 22.8 µM (inactive)
GI50 [56]: 64.4 µM (inactive)
GI50 [57]: 31.8 µM (inactive)
GI50 [58]: 13.5 µM (inactive)
GI50 [59]: 41.7 µM (inactive)

COc1ccc(C(=O)NCCN(C)C)c2nc3ccccc3cc12
GI50 [1]: 0.64 µM (active)
GI50 [2]: 0.753 µM (active)
GI50 [3]: 1.32 µM (inactive)
GI50 [4]: 0.817 µM (active)
GI50 [5]: 0.741 µM (active)
GI50 [6]: 0.532 µM (active)
GI50 [7]: 2.04 µM (inactive)
GI50 [8]: 1.85 µM (inactive)
GI50 [9]: 1.38 µM (inactive)
GI50 [10]: 1.44 µM (inactive)
GI50 [11]: 0.354 µM (active)
GI50 [12]: 1.2 µM (inactive)
GI50 [13]: 1.54 µM (inactive)
GI50 [14]: 3.18 µM (inactive)
GI50 [15]: 0.163 µM (active)
GI50 [16]: 1.67 µM (inactive)
GI50 [17]: 1.58 µM (inactive)
GI50 [18]: 0.785 µM (active)
GI50 [19]: 2 µM (inactive)
GI50 [20]: 0.386 µM (active)
GI50 [21]: 1.46 µM (inactive)
GI50 [22]: 0.653 µM (active)
GI50 [23]: 1.72 µM (inactive)
GI50 [24]: 0.729 µM (active)
GI50 [25]: 0.11 µM (active)
GI50 [26]: 1.35 µM
GI50 [27]: 0.353 µM (active)
GI50 [28]: 3.01 µM (inactive)
GI50 [29]: 0.841 µM (active)
GI50 [30]: 0.0551 µM (active)
GI50 [31]: 1.56 µM (inactive)
GI50 [32]: 0.208 µM (active)
GI50 [33]: 0.0411 µM (active)
GI50 [34]: 1.4 µM (inactive)
GI50 [35]: 1.23 µM (inactive)
GI50 [36]: 1.58 µM (inactive)
GI50 [37]: 4.68 µM (inactive)
GI50 [38]: 0.366 µM (active)
GI50 [39]: 0.401 µM (active)
GI50 [40]: 0.279 µM (active)
GI50 [41]: 1.31 µM (inactive)
GI50 [42]: 1.34 µM (inactive)
GI50 [43]: 0.596 µM (active)
GI50 [44]: 1.32 µM (inactive)
GI50 [45]: 0.0962 µM (active)
GI50 [46]: 1.66 µM (inactive)
GI50 [47]: 0.655 µM (active)
GI50 [48]: 2.12 µM (inactive)
GI50 [49]: 0.561 µM (active)
GI50 [50]: 0.0255 µM (active)
GI50 [51]: 2 µM (inactive)
GI50 [52]: 2.15 µM (inactive)
GI50 [53]: 0.241 µM (active)
GI50 [54]: 0.305 µM (active)
GI50 [55]: 0.383 µM (active)
GI50 [56]: 2.22 µM (inactive)
GI50 [57]: 0.21 µM (active)
GI50 [58]: 1.33 µM (inactive)
GI50 [59]: 0.114 µM (active)

O=C1C=CC(=O)N1c1ccc(I)cc1
GI50 [1]: 23.6 µM (inactive)
GI50 [2]: 19.2 µM (inactive)
GI50 [3]: 21.3 µM (inactive)
GI50 [4]: 18.6 µM (inactive)
GI50 [5]: > 44.8 µM (inactive)
GI50 [6]: 18.9 µM (inactive)
GI50 [7]: 19.1 µM (inactive)
GI50 [8]: 16.4 µM (inactive)
GI50 [9]: 18.3 µM (inactive)
GI50 [10]: 6.01 µM (inactive)
GI50 [11]: 6.11 µM (inactive)
GI50 [12]: 6.18 µM (inactive)
GI50 [13]: 20.2 µM (inactive)
GI50 [14]: 19 µM (inactive)
GI50 [15]: 23.6 µM (inactive)
GI50 [16]: 29.9 µM (inactive)
GI50 [17]: 27 µM (inactive)
GI50 [18]: 22.9 µM (inactive)
GI50 [19]: 18.5 µM (inactive)
GI50 [20]: 20.6 µM (inactive)
GI50 [21]: 15.2 µM (inactive)
GI50 [22]: 20.5 µM (inactive)
GI50 [23]: 16.4 µM (inactive)
GI50 [24]: 17.5 µM (inactive)
GI50 [25]: 2.84 µM (inactive)
GI50 [26]: 11.5 µM
GI50 [27]: 15.7 µM (inactive)
GI50 [28]: 20.4 µM (inactive)
GI50 [29]: 17.9 µM (inactive)
GI50 [30]: 5.77 µM (inactive)
GI50 [31]: 16.5 µM (inactive)
GI50 [32]: 3.1 µM (inactive)
GI50 [33]: 2.56 µM (inactive)
GI50 [34]: 23.4 µM (inactive)
GI50 [35]: 18.6 µM (inactive)
GI50 [36]: 18 µM (inactive)
GI50 [37]: 21.8 µM (inactive)
GI50 [38]: 23.8 µM (inactive)
GI50 [39]: 17.4 µM (inactive)
GI50 [40]: 19.9 µM (inactive)
GI50 [41]: 22.5 µM (inactive)
GI50 [42]: 21.4 µM (inactive)
GI50 [43]: 18.9 µM (inactive)
GI50 [44]: 24.9 µM (inactive)
GI50 [45]: 22.9 µM (inactive)
GI50 [46]: 23.3 µM (inactive)
GI50 [47]: 31.6 µM (inactive)
GI50 [48]: 23.6 µM (inactive)
GI50 [49]: 15.6 µM (inactive)
GI50 [50]: 33.5 µM (inactive)
GI50 [51]: 20.8 µM (inactive)
GI50 [52]: 17.9 µM (inactive)
GI50 [53]: 17.5 µM (inactive)
GI50 [54]: 7.53 µM (inactive)
GI50 [55]: 7.08 µM (inactive)
GI50 [56]: 25.6 µM (inactive)
GI50 [57]: 17.3 µM (inactive)
GI50 [58]: 16.7 µM (inactive)
GI50 [59]: 20.2 µM (inactive)

CCCCCCCCCCCC(=O)NCc1ccc(OC(=O)CCCCCCCCCCC)c(OC)c1
GI50 [1]: > 100 µM (inactive)
GI50 [2]: > 79.3 µM (inactive)
GI50 [3]: > 100 µM (inactive)
GI50 [4]: 2.63 µM (inactive)
GI50 [5]: > 100 µM (inactive)
GI50 [6]: > 70 µM (inactive)
GI50 [7]: > 64.6 µM (inactive)
GI50 [8]: > 75.2 µM (inactive)
GI50 [9]: 15.1 µM (inactive)
GI50 [10]: > 83 µM (inactive)
GI50 [11]: 33.5 µM (inactive)
GI50 [12]: 35.6 µM (inactive)
GI50 [13]: 34.2 µM (inactive)
GI50 [14]: > 100 µM (inactive)
GI50 [15]: > 100 µM (inactive)
GI50 [16]: > 100 µM (inactive)
GI50 [17]: > 54.1 µM (inactive)
GI50 [18]: > 100 µM (inactive)
GI50 [19]: > 81.7 µM (inactive)
GI50 [20]: > 88.3 µM (inactive)
GI50 [21]: 61.4 µM (inactive)
GI50 [22]: > 66.4 µM (inactive)
GI50 [23]: > 100 µM (inactive)
GI50 [24]: > 96.4 µM (inactive)
GI50 [25]: 6.07 µM (inactive)
GI50 [26]: > 100 µM
GI50 [27]: > 100 µM (inactive)
GI50 [28]: > 82.8 µM (inactive)
GI50 [29]: > 100 µM (inactive)
GI50 [30]: 11.1 µM (inactive)
GI50 [31]: > 100 µM (inactive)
GI50 [32]: 1.34 µM (inactive)
GI50 [33]: 2.75 µM (inactive)
GI50 [34]: 56.4 µM (inactive)
GI50 [35]: > 63 µM (inactive)
GI50 [36]: > 100 µM (inactive)
GI50 [37]: > 100 µM (inactive)
GI50 [38]: 32.8 µM (inactive)
GI50 [39]: 35.3 µM (inactive)
GI50 [40]: 5.42 µM (inactive)
GI50 [41]: 3.56 µM (inactive)
GI50 [42]: 24.3 µM (inactive)
GI50 [43]: 37.8 µM (inactive)
GI50 [44]: 4.21 µM (inactive)
GI50 [45]: > 100 µM (inactive)
GI50 [46]: > 100 µM (inactive)
GI50 [47]: 67.9 µM (inactive)
GI50 [48]: > 100 µM (inactive)
GI50 [49]: 65.2 µM (inactive)
GI50 [50]: > 100 µM (inactive)
GI50 [51]: 31.9 µM (inactive)
GI50 [52]: > 100 µM (inactive)
GI50 [53]: > 100 µM (inactive)
GI50 [54]: > 100 µM (inactive)
GI50 [55]: > 100 µM (inactive)
GI50 [56]: 32.2 µM (inactive)
GI50 [57]: > 100 µM (inactive)
GI50 [58]: 32.7 µM (inactive)
GI50 [59]: > 100 µM (inactive)

— ChEMBL document CHEMBL1201862, “PubChem BioAssay data set” (2004)
